Assay results as given in article PMC5253734, “A chemical genetic screen uncovers a small molecule enhancer of the N-acylethanolamine degrading enzyme, fatty acid amide hydrolase, in Arabidopsis” (Scientific Reports, 2017).

Columns and labels:
[1] = molecular target: T1, AtFAAH (Arabidopsis fatty acid amide hydrolase) (Arabidopsis thaliana, UniProt Q7XJJ7); experiment: radiometric TLC amidohydrolase assay, initial velocities, Michaelis-Menten; format: biochemical; conditions: labelled compound ([1-14C]); pH 9 Bis-Tris propane, 0.2 mM DDM, 30 °C; range covers without and with 100 μM MDPD; read-out: apparent Km
T1 construct: gene FAAH
T1 sequence (Q7XJJ7 1-607): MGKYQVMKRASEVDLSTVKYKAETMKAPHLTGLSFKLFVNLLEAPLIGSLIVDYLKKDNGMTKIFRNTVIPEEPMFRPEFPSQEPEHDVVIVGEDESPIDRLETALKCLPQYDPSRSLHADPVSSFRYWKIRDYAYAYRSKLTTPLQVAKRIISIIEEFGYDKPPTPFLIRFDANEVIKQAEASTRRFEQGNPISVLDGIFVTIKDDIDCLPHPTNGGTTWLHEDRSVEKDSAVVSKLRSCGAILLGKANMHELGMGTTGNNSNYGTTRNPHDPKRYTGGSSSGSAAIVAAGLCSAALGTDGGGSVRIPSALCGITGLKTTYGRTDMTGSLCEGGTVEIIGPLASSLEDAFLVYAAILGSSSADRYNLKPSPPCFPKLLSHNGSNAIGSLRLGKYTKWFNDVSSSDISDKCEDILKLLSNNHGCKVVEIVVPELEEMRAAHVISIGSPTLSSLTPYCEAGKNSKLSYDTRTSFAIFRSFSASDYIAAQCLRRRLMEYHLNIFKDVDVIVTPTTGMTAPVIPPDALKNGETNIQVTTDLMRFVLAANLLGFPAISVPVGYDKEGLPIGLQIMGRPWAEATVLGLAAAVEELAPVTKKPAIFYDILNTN

[2] = molecular target: T1, AtFAAH (Arabidopsis fatty acid amide hydrolase); experiment: radiometric TLC amidohydrolase assay; format: biochemical; conditions: activator (raises apparent Vmax, not Km); 100 μM [14C]-NAE 12:0; pH 9, 0.2 mM DDM, 30 °C

Compound	Km [1] [µM]	fold increase in activity at 100 μM [2]
CCCCCCCCCCCC(=O)NCCO [NAE 12:0, N-lauroylethanolamine]	27 to 28	
COc1ccccc1-n1cc2c(c1-c1ccccc1)c(=O)n(C)c(=O)n2C [MDPD, 6-(2-methoxyphenyl)-1,3-dimethyl-5-phenyl-1H-pyrrolo[3,4-d]pyrimidine-2,4(3 H,6 H)-dione]		~ 4 fold
